Data on 25 compounds can be found in US20230122249A1, “1H-PYRAZOLO[4,3-d]PYRIMIDINE COMPOUNDS AS TOLL-LIKE RECEPTOR 7 (TLR7) AGONISTS” (BRISTOL-MYERS SQUIBB COMPANY, priority 2020, published 2023).

The target of one assay is T1, human TLR7 (Homo sapiens, UniProt Q9NYK1).
T1 construct: host or cells: HEK-Blue TLR7 cells (engineered human embryonic kidney cells)
T1 sequence (Q9NYK1 27-1049): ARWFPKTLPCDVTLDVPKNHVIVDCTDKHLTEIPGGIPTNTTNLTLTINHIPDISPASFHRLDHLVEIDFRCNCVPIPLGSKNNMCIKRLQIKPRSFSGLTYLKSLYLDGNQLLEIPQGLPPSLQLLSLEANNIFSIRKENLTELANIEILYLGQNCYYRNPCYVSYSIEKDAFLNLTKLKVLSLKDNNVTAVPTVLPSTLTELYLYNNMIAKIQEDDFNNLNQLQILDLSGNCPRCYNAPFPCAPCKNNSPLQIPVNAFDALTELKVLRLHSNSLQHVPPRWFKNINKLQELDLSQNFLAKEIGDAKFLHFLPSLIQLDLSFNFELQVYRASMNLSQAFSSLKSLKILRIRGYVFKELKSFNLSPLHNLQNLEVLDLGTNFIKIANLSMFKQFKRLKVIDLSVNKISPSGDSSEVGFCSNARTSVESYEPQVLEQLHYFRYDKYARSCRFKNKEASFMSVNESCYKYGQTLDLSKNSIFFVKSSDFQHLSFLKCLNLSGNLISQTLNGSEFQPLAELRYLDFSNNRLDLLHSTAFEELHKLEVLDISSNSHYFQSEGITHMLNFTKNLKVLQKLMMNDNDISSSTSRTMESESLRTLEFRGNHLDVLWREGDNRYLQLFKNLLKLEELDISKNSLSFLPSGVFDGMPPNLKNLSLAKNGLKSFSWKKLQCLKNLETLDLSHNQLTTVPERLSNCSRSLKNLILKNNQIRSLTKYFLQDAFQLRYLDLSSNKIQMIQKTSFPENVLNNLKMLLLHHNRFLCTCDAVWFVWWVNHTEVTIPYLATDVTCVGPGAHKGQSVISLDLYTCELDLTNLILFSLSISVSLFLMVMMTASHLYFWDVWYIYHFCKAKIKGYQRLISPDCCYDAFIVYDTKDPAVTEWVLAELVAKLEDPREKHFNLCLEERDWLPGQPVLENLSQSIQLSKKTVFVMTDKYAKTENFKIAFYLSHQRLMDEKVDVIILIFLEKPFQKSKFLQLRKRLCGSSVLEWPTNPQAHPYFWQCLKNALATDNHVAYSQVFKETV
As to the kind of experiment: Human TLR7 agonist activity (hTLR7 reporter) assay in HEK-Blue TLR7 cells, SEAP readout. It counts as cell-based. The note with it: 18 h treatment, average where assay repeated. The method, boiled down: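 HEK-Blue TLR7 cells (15,000/well) treated with compound for 18 h at 37 °C, 5% CO2. Secreted SEAP measured with Quanti-Blue, 30 min, OD 620 nm. EC50 taken as concentration giving half-maximal response between baseline and maximum.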

The test system of assay [1] is CD69 in human whole blood. Description: Induction of CD69 in human whole blood (hWB). It counts as cell-based. As to conditions: heparinized human whole blood, 17 h, CD69 surface staining; 100% set to 1 uM resiquimod; average where assay repeated. A digest of the protocol: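 hWB stimulated with compound at 1 uM final (1 mM stock), 37° C o/n (17 hrs). Surface CD69-PE staining with CD14/CD19 gating, fix/lysis, then flow cytometry read. IC50 curves with 100% set to 1 uM resiquimod.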

For the compound `CCC[C@@H](CCO)Nc1nc(N)nc2cnn(Cc3ncc(C4CC5(C4)CN(C4CCOCC4)C5)cc3OC)c12` [Compound 250], the values for the EC50 (at human TLR7; in assay [1]) were 45.3 nM and 1.1 nM, respectively.
`CCC[C@@H](CCO)Nc1nc(N)nc2cnn(Cc3ncc(C4CC5(C4)CN(C(C)C)C5)cc3OC)c12` [Compound 251]: the EC50 is 134 nM at human TLR7 and 1.8 nM in assay [1].
With `CCC[C@@H](CCO)Nc1nc(N)nc2cnn(Cc3ccc(CN4CC5(C4)CN(CC4CCC4)C5)cc3OC)c12` [Compound 252], the EC50 came to 6.1 nM on human TLR7 and 0.4 nM in assay [1].
In the case of `CCC[C@@H](CCO)Nc1nc(N)nc2cnn(Cc3ccc(CN4CC5(C4)CN(CC4CC4)C5)cc3OC)c12` [Compound 253], the EC50 came to 14.5 nM at human TLR7 and 1.3 nM in assay [1].
Regarding `COc1cc(CN2CC3(C2)CS(=O)(=O)C3)ccc1Cn1ncc2nc(N)nc(NCc3noc(C)n3)c21` [Compound 254], the EC50 was 244 nM on human TLR7 and 18.7 nM in assay [1].
`CCCCNc1nc(N)nc2cnn(Cc3ccc(CN4CCC5(CC4)CNC5)cc3OC)c12` [Compound 255]: the figures for the EC50 (on human TLR7; in assay [1]) were 175 nM and 5.7 nM, respectively.
Regarding `CCCCNc1nc(N)nc2cnn(Cc3ccc(CN4CC5(CCNCC5)C4)cc3OC)c12` [Compound 256], the EC50 was 267 nM on human TLR7 and 10.7 nM in assay [1].
Consider `CCCCNc1nc(N)nc2cnn(Cc3ccc(CN4CC5(CCNC5)C4)cc3OC)c12` [Compound 257], for which the EC50 stood at 198 nM on human TLR7 and 4.8 nM in assay [1].
Consider `CCCCNc1nc(N)nc2cnn(Cc3ccc(CN4CCC5(CNC5)C4)cc3OC)c12` [Compound 258], for which the EC50 on human TLR7 came out at 147 nM; in assay [1], 6.5 nM.
On to `CCCCNc1nc(N)nc2cnn(Cc3ccc(CN4CCC5(CC4)CN(CCO)C5)cc3OC)c12` [Compound 259], for which the results for the EC50 (on human TLR7; in assay [1]) were 62.5 nM and 13.6 nM, respectively.
For `CCCCNc1nc(N)nc2cnn(Cc3ccc(CN4CC5(CCN(CCO)C5)C4)cc3OC)c12` [Compound 261] the same measures were 120 nM and 8 nM.
Regarding `CCCCNc1nc(N)nc2cnn(Cc3ccc(CN4CCC5(C4)CN(CCO)C5)cc3OC)c12` [Compound 262], the EC50 was 64.5 nM on human TLR7 and 4.4 nM in assay [1].
For the compound `COc1cc(CN2CC3(C2)CN(C(C)C)C3)ccc1Cn1ncc2nc(N)nc(NCc3noc(C)n3)c21` [Compound 263], the figures for the EC50 (at human TLR7; in assay [1]) were 68.7 nM and 12.7 nM, respectively.
In the case of `COc1cc(CN2CC3(C2)CN(C(C)=O)C3)ccc1Cn1ncc2nc(N)nc(NCc3noc(C)n3)c21` [Compound 264], the EC50 on human TLR7 came to 916 nM; in assay [1], 78.2 nM.
As to `CCCCNc1nc(N)nc2cnn(Cc3ccc(CN4CCC5(CCNC5)C4)cc3OC)c12` (centres unmarked) [Compound 265], the EC50 on human TLR7 is 177 nM; in assay [1], 33.1 nM.
As to `CCCCNc1nc(N)nc2cnn(Cc3ccc(CN4CCC5(CCNCC5)CC4)cc3OC)c12` [Compound 266], the figures for the EC50 (at human TLR7; in assay [1]) were 141 nM and 9.3 nM, respectively.
On to `CCCCNc1nc(N)nc2cnn(Cc3ccc(CN4CCC5(CCN(CCO)C5)C4)cc3OC)c12` (centres unmarked) [Compound 267], for which the EC50 at human TLR7 was 58.5 nM; in assay [1] it was 1.3 nM.
For `CCC[C@@H](CCO)Nc1nc(N)nc2c(C)nn(Cc3ccc(CNC4CC5(C4)CN(C)C5)cc3OC)c12` [Compound 269] the same measures were 69.9 nM and 3.7 nM.
As to `CCC[C@@H](CCO)Nc1nc(N)nc2cnn(Cc3ncc(C4CC5(CCN(C6CCOCC6)CC5)C4)cc3OC)c12` [Compound 270], the results for the EC50 (on human TLR7; in assay [1]) were 11.5 nM and 0.2 nM, respectively.
As to `CCC[C@@H](CCO)Nc1nc(N)nc2cnn(Cc3ncc(C4CCC5(CC4)CN(C4CCOCC4)C5)cc3OC)c12` [Compound 271], the EC50 at human TLR7 turned out to be 13.3 nM; in assay [1], 0.6 nM.
`CCC[C@@H](CCO)Nc1nc(N)nc2cnn(Cc3ncc(C4=CC5(CCNCC5)C4)cc3OC)c12` [Compound 272, (3S)-3-({5-amino-1-[(5-{7-azaspiro[3.5]non-1-en-2-yl}-3-methoxypyridin-2-yl)methyl]-1H-pyrazolo[4,3-d]pyrimidin-7-yl}amino)hexan-1-ol]: the EC50 was 668 nM at human TLR7 and 31.9 nM in assay [1].
Turning to `CCC[C@@H](CCO)Nc1nc(N)nc2cnn(Cc3ncc(C4=CC5(CCN(C6CCOCC6)CC5)C4)cc3OC)c12` [Compound 273, (3S)-3-{[5-amino-1-({3-methoxy-5-[7-(oxan-4-yl)-7-azaspiro[3.5]non-1-en-2-yl]pyridin-2-yl}methyl)-1H-pyrazolo[4,3-d]pyrimidin-7-yl]amino}hexan-1-ol], the results for the EC50 (at human TLR7; in assay [1]) were 47.5 nM and 1.5 nM, respectively.
Take `CCC[C@@H](CCO)Nc1nc(N)nc2cnn(Cc3ncc(C4=CC5(CCN(C(C)C)CC5)C4)cc3OC)c12` [Compound 274]: the EC50 on human TLR7 came out at 82.3 nM; in assay [1] it was 1.1 nM.
For the compound `CCC[C@@H](CCO)Nc1nc(N)nc2cnn(Cc3ncc(C4=CC5(CCN(CC(C)C)CC5)C4)cc3OC)c12` [Compound 275], the EC50 came out at 11 nM at human TLR7 and 1.2 nM in assay [1].
`CCC[C@@H](CCO)Nc1nc(N)nc2cnn(Cc3ncc(C4CCC5(CC4)CN(C(C)C)C5)cc3OC)c12` [Compound 277]: the EC50 on human TLR7 turned out to be 19.7 nM; in assay [1] it was 0.3 nM.
